Source: patent publication US20110190280A1, “Thiazole And Oxazole Kinase Inhibitors” (priority 2007, published 2011)
Where a name gives a salt, the structure may show the parent alone.

Assays:
Colo205 tumor cells = assay: Cell growth inhibition assay (CellTiter-Glo), Colo205; settings: Homo sapiens, COLO 205, 72 h, read-out: Activity in Colo205 Tumor Cells;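 further: growth measured via total ATP luminescence (CellTiter-Glo) as a proxy for cell number, inhibition expressed against DMSO-treated control wells, 3-day exposure at 0.2% final DMSO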
Description: Cell Growth Inhibition Assays Human colon tumor cells (Colo205) were cultured in RPMI (Mediatech 50-020-PB) containing 10% FBS and 1% penicillin-streptomycin. […] Human melanoma cancer cells (A375-F11S) were cultured in RPMI (Mediatech 50-020-PB) containing 10% FBS, 1% sodium pyruvate, and 1% penicillin-streptomycin. Human colon cancer cells (HT-29) were cultured in high glucose DMEM (Mediatech 50-013-PB) containing 10% FBS and 1% penicillin-streptomycin. Human melanoma cancer cells (SK-MEL-3) were cultured in McCoy's 5A (50-025-PB) containing 15% FBS, and 1% penicillin-streptomycin. All cell lines were maintained at 37° C. in a humidified 5% CO2, 95% air incubator.
The next day, compounds were diluted as follows: For 96-well assays, 13.5 μl of compound in DMSO were diluted using nine (9) serial 1:3 dilutions of 4.5 μl in 9 μl of DMSO. Medium (270 μl/well of RPMI with 10% FBS and 1% penicillin-streptomycin) was added to the plates. Aliquots (7 μl) were added to cells in the final assay giving a final DMSO concentration of 0.2%. For 384-well assays, 15 μl of compound in DMSO were diluted using nine (9) serial 1:3 dilutions of 5 μl in 10 μl of DMSO, followed by a further dilution of 5 μl of compound with 95 μl of medium, of which 2 μl are added to cells in the final assay giving a final DMSO concentration of 0.2%. Cells were incubated at 37° C., 5% CO2 for 3 days.
Total ATP was measured (as a surrogate estimate of cell number) using CellTiter-Glo® (Promega G7571) reagent. Briefly, plates were removed from the incubator and allowed to equilibrate to room temperature for 30 minutes. CellTiter-Glo® (25 μl or 55 μl for 384-well or 96-well assays, respectively) reagent was added to each well and plates were shaken on an orbital plate shaker for 2 minutes. Plates were incubated without shaking for a further 30 minutes and read on an LJL Analyst GT reader in luminometer mode with an integration time of 0.5 seconds per well. Percent inhibition of cell growth was calculated relative to DMSO vehicle-treated control wells.

SK-MEL-3 tumor cells = assay: Cell growth inhibition assay (CellTiter-Glo), SK-MEL-3; settings: Homo sapiens, SK-MEL3, 72 h, read-out: Activity in SK-MEL-3 Tumor Cells;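 further: human melanoma cells grown with compound for 3 days in 0.2% DMSO, total ATP read by luminescence as proxy for cell number, growth inhibition versus DMSO-treated wells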
B-Raf = B-Raf (Homo sapiens, UniProt P15056); assay: B-Raf Accelerated MEK ATPase assay (BRAMA); type: biochemical; settings: BRAMA enzyme assay, class by pIC50; for IC50: read-out: B-Raf Activity
Chain of B-Raf (P15056 whole entry): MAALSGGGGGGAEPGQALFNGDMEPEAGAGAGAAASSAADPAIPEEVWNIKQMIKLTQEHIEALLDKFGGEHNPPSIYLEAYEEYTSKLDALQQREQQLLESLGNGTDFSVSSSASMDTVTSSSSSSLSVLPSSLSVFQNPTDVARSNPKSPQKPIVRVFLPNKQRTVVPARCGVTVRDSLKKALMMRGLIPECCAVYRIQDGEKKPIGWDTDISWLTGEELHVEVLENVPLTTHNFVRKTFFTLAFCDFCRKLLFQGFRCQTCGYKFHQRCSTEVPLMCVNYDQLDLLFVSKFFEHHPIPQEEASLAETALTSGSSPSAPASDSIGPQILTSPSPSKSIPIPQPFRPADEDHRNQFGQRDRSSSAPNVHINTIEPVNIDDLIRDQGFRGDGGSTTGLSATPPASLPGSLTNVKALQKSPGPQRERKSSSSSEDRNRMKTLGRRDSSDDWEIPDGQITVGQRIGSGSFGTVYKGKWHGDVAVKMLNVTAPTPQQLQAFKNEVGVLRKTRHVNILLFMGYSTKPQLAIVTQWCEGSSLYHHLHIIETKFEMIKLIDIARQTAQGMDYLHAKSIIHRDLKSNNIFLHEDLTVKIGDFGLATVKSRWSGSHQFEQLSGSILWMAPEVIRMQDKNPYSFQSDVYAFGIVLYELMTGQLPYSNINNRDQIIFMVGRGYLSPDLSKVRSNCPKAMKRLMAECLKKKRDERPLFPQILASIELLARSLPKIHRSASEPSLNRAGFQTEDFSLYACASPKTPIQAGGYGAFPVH
Description: Compounds of the present invention were tested for B-Raf […] inhibitory activity in a B-Raf Accelerated MEK ATPase assay (BRAMA). The BRAMA assay is a high sensitivity assay which measures an intrinsic MEK-mediated ATP hydrolysis uncoupled from downstream ERK phosphorylation by coupling the formation of ADP to NADH oxidation through the enzymes pyruvate kinase and lactate dehydrogenase. When ADP production is initiated by addition of catalytic amounts of an activated RAF enzyme and non-phosphorylated MEK, one observes robust ADP production concomitant with RAF-mediated phosphorylation of MEK. Specific details of the assay are disclosed in: C. Rominger, M. Schaber, E. May. Assay for B-Raf Activity Based on Intrinsic MEK ATPase Activity.

HT-29 tumor cells = assay: Cell growth inhibition assay (CellTiter-Glo), HT-29; settings: Homo sapiens, HT-29, 72 h, read-out: Activity in HT-29 Tumor Cells;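 further: ATP content read by luminescence as proxy for cell number, growth inhibition versus DMSO vehicle wells, 0.2% DMSO final, nine serial threefold compound dilutions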
SK-MEL-28 tumor cells = assay: Cell growth inhibition assay (CellTiter-Glo), SK-MEL-28; settings: Homo sapiens, SK-MEL-28, 72 h, read-out: Activity in SK-MEL-28 Tumor Cells;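 further: luminescent total ATP as a proxy for cell number, threefold serial dilutions at 0.2% DMSO, percent growth inhibition versus DMSO vehicle control wells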
A375P tumor cells = assay: Cell growth inhibition assay (CellTiter-Glo), A375P; settings: Homo sapiens, 72 h, read-out: Activity in A375P Tumor Cells;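 further: total ATP luminescence used as proxy for cell number, serial threefold compound dilutions at 0.2% DMSO, growth inhibition expressed versus DMSO vehicle-treated wells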

Row | Structure (SMILES) | IC50 (Colo205 tumor cells) [nM] | IC50 (SK-MEL-3 tumor cells) [nM] | IC50 (B-Raf) [nM] | IC50 (HT-29 tumor cells) [nM] | IC50 (SK-MEL-28 tumor cells) [nM] | IC50 (A375P tumor cells) [nM] | B-Raf Activity (B-Raf)
1 | COc1cc(C)cc(-c2nc(C(C)C)oc2-c2ccnc(Nc3ccc(N4CCN(CCS(C)(=O)=O)CC4)c(F)c3)n2)c1 [Example 102] | < 500 | < 500 | < 100 | < 500 | 500 to 5000 | 500 to 5000 | 
2 | CCNc1nc(-c2cc(OC)cc(OC)c2)c(-c2ccnc(Nc3ccc(N4CCS(=O)(=O)CC4)c(F)c3)n2)s1 [Example 9, 4-[4-[3,5-Bis(methyloxy)phenyl]-2-(ethylamino)-1,3-thiazol-5-yl]-N-[4-(1,1-dioxido-4-thiomorpholinyl)-3-fluorophenyl]-2-pyrimidinamine] | 500 to 5000 | < 500 | < 100 | < 500 | < 500 | 500 to 5000 | 
3 | CCNc1nc(-c2cc(C)cc(OC)c2)c(-c2ccnc(Nc3ccc(N4CCOCC4)c(C(F)(F)F)c3)n2)s1 [Example 25, 4-{2-(Ethylamino)-4-[3-methyl-5-(methyloxy)phenyl]-1,3-thiazol-5-yl}-N-[4-(4-morpholinyl)-3-(trifluoromethyl)phenyl]-2-pyrimidinamine] | 500 to 5000 | < 500 | < 100 | < 500 | 500 to 5000 | < 500 | 
4 | CCNc1nc(-c2cc(OC)cc(OC)c2)c(-c2ccnc(Nc3cc(OC)c(OC4CCN(CCS(C)(=O)=O)CC4)c(OC)c3)n2)o1 [Example 133] | < 500 | 500 to 5000 | < 100 | 500 to 5000 | 500 to 5000 | 500 to 5000 | 
5 | CCNc1nc(-c2ccc(Cl)c(C)c2)c(-c2ccnc(Nc3ccc(OCCN4CCCC4)c(Cl)c3)n2)s1 [Example 54, 4-[4-(4-Chloro-3-methylphenyl)-2-(ethylamino)-1,3-thiazol-5-yl]-N-(3-chloro-4-{[2-(1-pyrrolidinyl)ethyl]oxy}phenyl)-2-pyrimidinamine] | < 500 | < 500 | < 100 | < 500 | 500 to 5000 | 500 to 5000 | 
6 | CCNc1nc(-c2cc(C)cc(OC)c2)c(-c2ccnc(Nc3ccc(OCCOC)c(F)c3)n2)s1 [Example 38, 4-{2-(Ethylamino)-4-[3-methyl-5-(methyloxy)phenyl]-1,3-thiazol-5-yl}-N-(3-fluoro-4-{[2-(methyloxy)ethyl]oxy}phenyl)-2-pyrimidinamine] | < 500 | < 500 | < 100 | < 500 | 500 to 5000 | < 500 | 
7 | COc1cc(OC)cc(-c2nc(NC3CCC3)sc2-c2ccnc(Nc3ccc(OC4CCN(CCS(C)(=O)=O)CC4)c(F)c3)n2)c1 [Example 22, 4-[4-[3,5-Bis(methyloxy)phenyl]-2-(cyclobutylamino)-1,3-thiazol-5-yl]-N-[3-fluoro-4-({1-[2-(methylsulfonyl)ethyl]-4-piperidinyl}oxy)phenyl]-2-pyrimidinamine] | < 500 | < 500 | < 100 | < 500 | < 500 | < 500 | 
8 | COc1cc(OC)cc(-c2nc(NC3CC3)sc2-c2ccnc(Nc3ccc(OC4CCN(CCS(C)(=O)=O)CC4)c(F)c3)n2)c1 [Example 17, 4-[4-[3,5-Bis(methyloxy)phenyl]-2-(cyclopropylamino)-1,3-thiazol-5-yl]-N-[3-fluoro-4-({1-[2-(methylsulfonyl)ethyl]-4-piperidinyl}oxy)phenyl]-2-pyrimidinamine] | < 500 | < 500 | < 100 | < 500 | < 500 | < 500 | 
9 | CCNc1nc(-c2cc(C)cc(OC)c2)c(-c2ccnc(Nc3ccc(OC4CCN(CCS(C)(=O)=O)CC4)c(F)c3)n2)s1 [Example 32, 4-{2-(Ethylamino)-4-[3-methyl-5-(methyloxy)phenyl]-1,3-thiazol-5-yl}-N-[3-fluoro-4-({1-[2-(methylsulfonyl)ethyl]-4-piperidinyl}oxy)phenyl]-2-pyrimidinamine] | < 500 | < 500 | < 100 | < 500 | < 500 | < 500 | 
10 | COc1cc(OC)cc(-c2nc(NC3CC3)sc2-c2ccnc(Nc3ccc(OCCN4CCCC4=O)c(F)c3)n2)c1 [Example 16, 1-(2-{[4-({4-[4-[3,5-Bis(methyloxy)phenyl]-2-(cyclopropylamino)-1,3-thiazol-5-yl]-2-pyrimidinyl}amino)-2-fluorophenyl]oxy}ethyl)-2-pyrrolidinone trifluoroacetate] | 500 to 5000 | < 500 | < 100 | < 500 | 500 to 5000 | 500 to 5000 | 
11 | CCNc1nc(-c2cc(Cl)cc(OC)c2)c(-c2ccnc(Nc3ccc(N4CCN(CCF)CC4)c(F)c3)n2)o1 [Example 104] | < 500 | 500 to 5000 | < 100 | < 500 | 500 to 5000 | 500 to 5000 | 
12 | CCNc1nc(-c2cc(OC)cc(OC)c2)c(-c2ccnc(Nc3ccc(OC4CCN(CCOC)CC4)c(F)c3)n2)o1 [Example 89] | 500 to 5000 | < 500 | < 100 | 500 to 5000 | 500 to 5000 | 500 to 5000 | 
13 | CCNc1nc(-c2cc(C)cc(OC)c2)c(-c2ccnc(Nc3ccc(N4CCOCC4)c(F)c3)n2)o1.O=C(O)C(F)(F)F [Example 129] |  | 500 to 5000 |  | 500 to 5000 |  | 500 to 5000 | +++ (at least one pIC50 measurement of greater than 7 against B-Raf)
14 | COc1cc(-c2nc(NC3CC3)sc2-c2ccnc(Nc3ccc(OCCN4CCCC4)c(Cl)c3)n2)ccc1Cl [Example 51, 4-[4-[4-Chloro-3-(methyloxy)phenyl]-2-(cyclopropylamino)-1,3-thiazol-5-yl]-N-(3-chloro-4-{[2-(1-pyrrolidinyl)ethyl]oxy}phenyl)-2-pyrimidinamine] | < 500 | < 500 | < 100 | < 500 | 500 to 5000 | 500 to 5000 | 
15 | CNc1nc(-c2cc(OC)cc(OC)c2)c(-c2ccnc(Nc3ccc(OCCN4CCCC4)c(Cl)c3)n2)s1 [Example 20, 4-[4-[3,5-Bis(methyloxy)phenyl]-2-(methylamino)-1,3-thiazol-5-yl]-N-(3-chloro-4-{[2-(1-pyrrolidinyl)ethyl]oxy}phenyl)-2-pyrimidinamine] | < 500 | < 500 | < 100 | < 500 | < 500 | < 500 | 
16 | CCNc1nc(-c2ccc(Cl)c(OC)c2)c(-c2ccnc(Nc3ccc(OCCN4CCCC4)c(Cl)c3)n2)s1 [Example 49, 4-[4-[4-Chloro-3-(methyloxy)phenyl]-2-(ethylamino)-1,3-thiazol-5-yl]-N-(3-chloro-4-{[2-(1-pyrrolidinyl)ethyl]oxy}phenyl)-2-pyrimidinamine] | 500 to 5000 | < 500 | < 100 | < 500 | 500 to 5000 | < 500 | 
17 | CCNc1nc(-c2ccc3c(c2)OCO3)c(-c2ccnc(Nc3ccc(N4CCN(C(C)=O)CC4)nc3)n2)s1 [Example 53, N-[6-(4-Acetyl-1-piperazinyl)-3-pyridinyl]-4-[4-(1,3-benzodioxol-5-yl)-2-(ethylamino)-1,3-thiazol-5-yl]-2-pyrimidinamine] | < 500 | < 500 | < 100 | < 500 | 500 to 5000 | < 500 | 
18 | CCNc1nc(-c2cc(C)cc(OC)c2)c(-c2ccnc(Nc3ccc(N4CCN(C)CC4)c(Cl)c3)n2)s1 [Example 31, N-[3-Chloro-4-(4-methyl-1-piperazinyl)phenyl]-4-{2-(ethylamino)-4-[3-methyl-5-(methyloxy)phenyl]-1,3-thiazol-5-yl}-2-pyrimidinamine] | < 500 | < 500 | < 100 | < 500 | < 500 | < 500 | 
19 | CCNc1nc(-c2cc(OC)cc(OC)c2)c(-c2ccnc(Nc3ccc(N4CCN(C)CC4)c(Cl)c3)n2)s1 [Example 11, 4-[4-[3,5-Bis(methyloxy)phenyl]-2-(ethylamino)-1,3-thiazol-5-yl]-N-[3-chloro-4-(4-methyl-1-piperazinyl)phenyl]-2-pyrimidinamine] | < 500 | < 500 | < 100 | < 500 | < 500 | < 500 | 
20 | CCNc1nc(-c2cc(C)cc(OC)c2)c(-c2ccnc(Nc3ccc(N4CCN5CCOC[C@H]5C4)nc3)n2)s1 [Example 71, 4-{2-(Ethylamino)-4-[3-methyl-5-(methyloxy)phenyl]-1,3-thiazol-5-yl}-N-{6-[(9aR)-hexahydropyrazino[2,1-c][1,4]oxazin-8(1H)-yl]-3-pyridinyl}-2-pyrimidinamine] | < 500 |  | < 100 |  | < 500 |  | 
